The values below come from patent US5420261A, “Glycosides of 3'-deoxyaquayamycin antibiotics” (Schering Corporation, priority 1992, dated 1995).

Values after ≈ are worked out from the molar mass of the structure shown. Read-outs that look alike come from different tables or passages of the source.

For one series, the system named is Candida (8 species). In words: In vitro antifungal activity in Sabouraud dextrose broth, Candida (8 species). Format: cell-based. To be noted: read-out: GEOMETRIC MEAN MIC.
Series [1] has as its system Dermatophytes (seven species). Briefly: In vitro antifungal activity in Sabouraud dextrose broth, dermatophytes (seven species). Format: cell-based. To be noted: read-out: GEOMETRIC MEAN MIC.
The subject of another series is Mycelial. In words: In vitro activity in Eagles Medium Essential Medium (EMEM), Mycelial. Type of series: cell-based. To be noted: read-out: GEOMETRIC MEAN MIC.
A further series deals with C. abicans. In words: Bioautography after thin layer chromatography, C. abicans. Format: cell-based. To be noted: TLC in 2:2:1 chloroform: methanol: pH 3.5 acetate buffer. The text has this:
(§1) The medium employed for the fermentation contained beef extract, tryptone, yeast extract, cerelose and soluble starch as the major sources of nitrogen and carbon, respectively.

Another series concerns E. coli. Briefly: Bioautography after thin layer chromatography, E. coli. Format: cell-based. To be noted: TLC in 2:2:1 chloroform: methanol: pH 3.5 acetate buffer.
From the text: as §1

Another series has as its system S. aureus. Briefly: Bioautography after thin layer chromatography, S. aureus. To be noted: TLC in 2:2:1 chloroform: methanol: pH 3.5 acetate buffer. Type of series: cell-based.
From the text: as §1

The nature of a further series: Solubility. Type of series: physicochemical.
The mark [2] stands for this setting: Sabouraud Dextrose Broth Medium, Candida (8 species).
[3] abbreviates: Sabouraud Dextrose Broth Medium, Dermatophytes (seven species).

The term MIC denotes the smallest concentration in the dilution series that meets the test's criterion for growth inhibition. Take `COc1cccc2c1C(=O)c1c(O)c3c(c(O)c1C2=O)C[C@@](O)(C(=O)CO)C[C@@H]3O[C@H]1C[C@H](N)[C@H](O)[C@H](C)O1` [Adriamycin, reference compound]: the minimum inhibitory concentration (MIC) with Candida (8 species) (Candida) is ≥ 128 µg/mL; in series [1] it was ≥ 128 µg/mL; in the series on Mycelial it was 128 µg/mL (≈ 235 µM).

Turning to `CC1OC(OC2CCC(c3ccc4c(c3O)C(=O)C3=C(C4=O)C4(O)C(=O)CC(C)(OC5C=CC(=O)C(C)O5)CC4(O)C=C3)OC2C)C=CC1=O` (stereo not drawn) [Compound 1a], the “biological activity by bioautography” value with C. abicans, in the series on E. coli and in the series on S. aureus was “biologically active” each time. In addition, the minimal inhibitory concentration (MIC) is ≥ 43 µg/mL with Candida (8 species) (setting [2]), ≥ 5 µg/mL in series [1] (setting [3]) and 78 µg/mL (≈ 113 µM) with Mycelial. Further, the “solubility in dichlormethane, chloroform and dimethyl sulfoxide” value in “Solubility” is “soluble in dichlormethane, chloroform and dimethyl sulfoxide”. Besides, in “Solubility”, the “solubility in hexane and water” value is “insoluble in hexane and water”. The “solubility in methanol, diethyl ether and ethyl acetate” value in the series “Solubility” is “less soluble in methanol, diethyl ether and ethyl acetate”.

In the case of `CC1OC(OC2(C)CC(=O)C3(O)C4=C(C=CC3(O)C2)C(=O)c2c(ccc(C3CCC(OC5CCC(O)C(C)O5)C(C)O3)c2O)C4=O)C=CC1=O` (stereo not drawn) [Compound 1b], the “biological activity by bioautography” value in the series with C. abicans, with E. coli and with S. aureus was “biologically active” in each case. Moreover, the minimum inhibitory concentration (MIC) in the series on Candida (8 species) (setting [2]) is ≥ 128 µg/mL; in series [1] (setting [3]), ≥ 132 µg/mL; in the series on Mycelial it was 95 µg/mL (≈ 137 µM). For the same molecule, the “solubility in dichlormethane, chloroform and dimethyl sulfoxide” value in “Solubility” is “soluble in dichlormethane, chloroform and dimethyl sulfoxide”. Moreover, in the series “Solubility”, the “solubility in hexane and water” value was “insoluble in hexane and water”. The “solubility in methanol, diethyl ether and ethyl acetate” value in “Solubility” is “less soluble in methanol, diethyl ether and ethyl acetate”.
